Results on eight compounds are retold here after US20260285816A1, “Piperazinyl-Modified Quinazolinyl-Aryl Urea Derivative, And Preparation Method And Use Thereof” (Guangxi Normal University, priority 2025, published 2026).

Like-named read-outs stand apart in the source and are kept apart here.

The test system of one series is A549 cells. Briefly: CCK-8 anti-proliferative assay, A549. In kind it is cell-based, human. Conditions: Homo sapiens, A549; Table 13; co-incubated 48 h; read-out: Anti-proliferative activity (IC50 ± standard deviation) A549. Put shortly: (§1)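 Anti-proliferative effect is measured by CCK-8 after compound exposure at nine final concentrations between 1 and 30 μM. Treatment starts once seeded cells (5,000/well) reach 70% confluency at 37° C., 5% CO2.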

The test system of the next series is SK-OV-3 cells. Kind of series: CCK-8 anti-proliferative assay, SK-OV-3. The series is classed as cell-based, human. Conditions: Homo sapiens, SK-OV-3; Table 12; co-incubated 48 h; read-out: Anti-proliferative activity (IC50 ± standard deviation) SK-OV-3. Summed up:
as §1

The test system of series [1] is immortalized ureteral epithelial cells (SV-HUC-1). Briefly: CCK-8 anti-proliferative assay, normal cells SV-HUC-1. The series is classed as cell-based, human. Conditions: Homo sapiens, SV-HUC1; Table 13; normal cells; co-incubated 48 h; read-out: Anti-proliferative activity (IC50 ± standard deviation) SV-HUC-1. Summed up:
as §1

Another series relates to T24 cells. Kind of series: CCK-8 anti-proliferative assay, T24. In kind it is cell-based, human. Conditions: Homo sapiens, T-24; Table 10; co-incubated 48 h; read-out: Anti-proliferative activity (IC50 ± standard deviation) T24. Put shortly: (§2)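 Compound was added at final concentrations of 1 to 30 μM, in triplicate, to cells at 70% confluence (5,000 per well seeded). After co-incubation, CCK-8 was added for 1–4 h depending on the cell line. Inhibition from OD450 relative to untreated cells gave IC50.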

In another series the test system is 143B cells. Kind of series: CCK-8 anti-proliferative assay, 143B. Conditions: Homo sapiens, 143B. In kind it is cell-based, human. Put shortly:
as §2

The next series deals with HeLa cells. Briefly: CCK-8 anti-proliferative assay, HeLa. In kind it is cell-based, human. Conditions: Homo sapiens, HeLa; Table 12; co-incubated 48 h; read-out: Anti-proliferative activity (IC50 ± standard deviation) HeLa. Put shortly:
as §1

The next series has as its system UM-UC-3 cells. Kind of series: CCK-8 anti-proliferative assay, UM-UC-3. In kind it is cell-based, human. Conditions: Homo sapiens, UMUC3; Table 10; co-incubated 48 h; read-out: Anti-proliferative activity (IC50 ± standard deviation) UM-UC-3. Summed up:
as §1

A further series concerns MG-63 cells. Briefly: CCK-8 anti-proliferative assay, MG-63. The series is classed as cell-based, human. Conditions: Homo sapiens, MG-63. Put shortly:
as §2

In the next series the test system is BxPC-3 cells. Briefly: CCK-8 anti-proliferative assay, BxPC-3. The series is classed as cell-based, human. Conditions: Homo sapiens, BXPC-3; Table 11; co-incubated 48 h; read-out: Anti-proliferative activity (IC50 ± standard deviation) BxPC-3. Summed up: as §2
A further series deals with PANC-1 cells. Kind of series: CCK-8 anti-proliferative assay, PANC-1. In kind it is cell-based, human. Conditions: Homo sapiens, PANC-1; Table 11; co-incubated 48 h; read-out: Anti-proliferative activity (IC50 ± standard deviation) PANC-1. Put shortly:
as §2

The subject of the next series is J82 cells. Briefly: CCK-8 anti-proliferative assay, J82. Conditions: Homo sapiens, J82; Table 10; co-incubated 48 h; read-out: Anti-proliferative activity (IC50 ± standard deviation) J82. The series is classed as cell-based, human. Summed up:
as §1

A further series concerns 5637 cells. Kind of series: CCK-8 anti-proliferative assay, 5637. In kind it is cell-based, human. Conditions: Homo sapiens; Table 10; co-incubated 48 h; read-out: Anti-proliferative activity (IC50 ± standard deviation) 5637. Put shortly: as §1
Series [2] relates to embryonic lung fibroblasts (WI-38). Briefly: CCK-8 anti-proliferative assay, normal cells WI-38. The series is classed as cell-based, human. Conditions: Homo sapiens, WI-38, Table 13, co-incubated 48 h, read-out: Anti-proliferative activity (IC50 ± standard deviation) WI-38. Put shortly: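 Growth inhibition was measured by CCK-8 in human cells seeded at 5,000 per well and treated at 70% confluency. Compound exposure spanned 1, 2, 4, 6, 8, 12, 16, 24 and 30 μM for designated durations at 37° C. Percent inhibition against vehicle control at OD 450 nm yielded median inhibitory concentrations.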

The test system of the next series is MCF-7 cells. Kind of series: CCK-8 anti-proliferative assay, MCF-7. The series is classed as cell-based, human. Conditions: Homo sapiens, MCF7; Table 12; co-incubated 48 h; read-out: Anti-proliferative activity (IC50 ± standard deviation) MCF-7. Summed up: as §1
The subject of another series is Hep G2 cells. Kind of series: CCK-8 anti-proliferative assay, Hep G2. In kind it is cell-based, human. Conditions: Homo sapiens, HepG2; Table 12; co-incubated 48 h; read-out: Anti-proliferative activity (IC50 ± standard deviation) Hep G2. Put shortly:
as §2

For series [3] the following is noted: background; cited from earlier work.
For series [4], the system named is human pancreatic cancer BxPC-3. Briefly: BxPC-3 tumor-bearing nude mouse model. The series is classed as in vivo, nude mice.
Where [5] appears, read: Table 11, co-incubated 48 h, read-out: Anti-proliferative activity (IC50 ± standard deviation) 143B.
Where [6] appears, read: Table 11, co-incubated 48 h, read-out: Anti-proliferative activity (IC50 ± standard deviation) MG-63.

`COc1cc2ncnc(NCc3cccc(NC(=O)Nc4ccc(C(F)(F)F)cc4)c3)c2cc1OCCCCCCN1CCC(CN2CCN(c3ccccn3)CC2)CC1` [Compound 8-2t, N-(3-(((7-methoxy-6-((6-(4-((4-(pyridin-2-yl)piperazin-1-yl)methyl)piperidin-1-yl)hexyl)oxy)quinazolin-4-yl)amino)methyl)phenyl)-N′-(4-(trifluoromethyl)phenyl)urea]: the half-maximal inhibitory concentration (IC50) in the series with A549 cells was determined as 11.8 ± 0.88 µM; in the series on SK-OV-3 cells, 13.3 ± 0.84 µM; in [1] it was 8.92 ± 0.49 µM; with T24 cells it was 6.47 ± 0.25 µM; with 143B cells (setting [5]), 9.42 ± 0.56 µM; in the series with HeLa cells, 7.29 ± 0.24 µM. Also, the IC50 came to 6.79 ± 0.41 µM with UM-UC-3 cells; 11.7 ± 0.92 µM in the series on MG-63 cells (setting [6]); 11.3 ± 0.73 µM in the series with BxPC-3 cells; 15.6 ± 0.93 µM in the series on PANC-1 cells; 5.46 ± 0.41 µM in the series with J82 cells; 7.32 ± 0.57 µM in the series on 5637 cells. Moreover, the IC50 was 10.6 ± 0.64 µM in series [2], 5.94 ± 0.36 µM in the series with MCF-7 cells and 4.76 ± 0.45 µM in the series with Hep G2 cells.

For the compound `COc1cc2ncnc(NCc3cccc(NC(=O)Nc4ccc(F)c(C(F)(F)F)c4)c3)c2cc1OCCCCCCN1CCC(CN2CCN(c3ccccn3)CC2)CC1` [Compound 8-2u], the IC50 is 12.4 ± 1.43 µM with A549 cells; 15.6 ± 0.92 µM with SK-OV-3 cells; 23.1 ± 0.97 µM in [1]; 14.1 ± 0.77 µM in the series with T24 cells; 13.6 ± 0.92 µM in the series with 143B cells (setting [5]); more than 30 µM with HeLa cells. Also, the IC50 with UM-UC-3 cells is 11.9 ± 0.66 µM; in the series with MG-63 cells (setting [6]), 16 ± 1.07 µM; in the series with BxPC-3 cells it was 25.4 ± 1.57 µM; in the series with PANC-1 cells it was more than 30 µM; in the series with J82 cells, 12.9 ± 0.66 µM; in the series on 5637 cells it was 13.2 ± 0.78 µM. Moreover, the IC50 in series [2] stood at 15.9 ± 0.85 µM; in the series on MCF-7 cells, 9.92 ± 0.86 µM; with Hep G2 cells it was 14.3 ± 1.33 µM.

Turning to `COc1cc2ncnc(NCc3cccc(NC(=O)Nc4ccc(Cl)c(C(F)(F)F)c4)c3)c2cc1OCCCCCCN1CCC(CN2CCN(c3ccccn3)CC2)CC1` [Compound 8-2v], the IC50 with A549 cells worked out at 7.98 ± 0.92 µM; in the series on SK-OV-3 cells it was 5.49 ± 0.63 µM; in [1], 7.33 ± 0.46 µM; in the series with T24 cells, 4.73 ± 0.42 µM; with 143B cells (setting [5]) it was 6.84 ± 0.59 µM; with HeLa cells it was 6.98 ± 0.83 µM. The IC50 in the series with UM-UC-3 cells was 6.77 ± 0.69 µM; in the series on MG-63 cells (setting [6]), 8.02 ± 0.79 µM; in the series on BxPC-3 cells it was 14.9 ± 1.28 µM; with PANC-1 cells it was 14.9 ± 0.79 µM; in the series on J82 cells it was 11.1 ± 0.69 µM; in the series with 5637 cells, 11.8 ± 0.95 µM. Moreover, the IC50 is 8.71 ± 0.52 µM in [2], 4.41 ± 0.27 µM in the series with MCF-7 cells and 4.97 ± 0.35 µM with Hep G2 cells.

Take `COc1cc2ncnc(NCc3cccc(NC(=O)Nc4cc(C(F)(F)F)cc(C(F)(F)F)c4)c3)c2cc1OCCCCCCN1CCC(CN2CCN(c3ccccn3)CC2)CC1` [Compound 8-2w, N-(3-(((7-methoxy-6-((6-(4-((4-(pyridin-2-yl)piperazin-1-yl)methyl)piperidin-1-yl)hexyl)oxy)quinazolin-4-yl)amino)methyl)phenyl)-N′-(3,5-bis(trifluoromethyl)phenyl)urea]: the IC50 in the series with A549 cells came to 9.69 ± 0.72 µM; with SK-OV-3 cells it was 5.16 ± 0.27 µM; in series [1], 7.19 ± 0.68 µM; in the series with T24 cells it was 5.92 ± 0.54 µM; with 143B cells (setting [5]), 8.04 ± 0.45 µM; with HeLa cells, 6.42 ± 0.56 µM. The IC50 amounted to 6.42 ± 0.16 µM in the series with UM-UC-3 cells; 8.33 ± 0.81 µM in the series with MG-63 cells (setting [6]); 15.5 ± 0.92 µM in the series on BxPC-3 cells; 15.1 ± 0.66 µM with PANC-1 cells; 7.84 ± 0.52 µM in the series on J82 cells; 13.1 ± 0.67 µM with 5637 cells. In addition, the IC50 in series [2] worked out at 9.49 ± 0.42 µM; in the series with MCF-7 cells, 5.59 ± 0.46 µM; with Hep G2 cells, 5.87 ± 0.49 µM.

For `COc1cc2ncnc(NCc3cccc(NC(=O)NCc4ccccc4)c3)c2cc1OCCCCCCN1CCC(CN2CCN(c3ccccn3)CC2)CC1` [Compound 8-2y, N-(3-(((7-methoxy-6-((6-(4-((4-(pyridin-2-yl)piperazin-1-yl)methyl)piperidin-1-yl)hexyl)oxy)quinazolin-4-yl)amino)methyl)phenyl)-N′-benzylurea], the IC50 with A549 cells was 7.01 ± 0.62 µM; in the series with SK-OV-3 cells, 6.23 ± 0.56 µM; in [1], 8.96 ± 0.67 µM; in the series with T24 cells it was 4.07 ± 0.19 µM; in the series with 143B cells (setting [5]), 6.74 ± 0.52 µM; in the series on HeLa cells, 5.02 ± 0.49 µM. Besides, the IC50 worked out at 3.92 ± 0.24 µM in the series with UM-UC-3 cells; 5.91 ± 0.46 µM in the series on MG-63 cells (setting [6]); 11 ± 0.85 µM in the series with BxPC-3 cells; 7.36 ± 0.42 µM in the series with PANC-1 cells; 4.13 ± 0.32 µM in the series on J82 cells; 4.92 ± 0.31 µM with 5637 cells. The values for the IC50 (in series [2]; with MCF-7 cells; with Hep G2 cells) were 9.89 ± 0.23 µM, 5.71 ± 0.54 µM and 5.92 ± 0.66 µM, respectively.

Turning to `COc1cc2ncnc(NCc3cccc(NC(=O)NC4CCCCC4)c3)c2cc1OCCCCCCN1CCC(CN2CCN(c3ccccn3)CC2)CC1` [Compound 8-2z, N-(3-(((7-methoxy-6-((6-(4-((4-(pyridin-2-yl)piperazin-1-yl)methyl)piperidin-1-yl)hexyl)oxy)quinazolin-4-yl)amino)methyl)phenyl)-N′-cyclohexylurea], the IC50 was 11.1 ± 0.83 µM in the series with A549 cells; 8.69 ± 0.72 µM with SK-OV-3 cells; 8.02 ± 0.81 µM in [1]; 5.33 ± 0.52 µM in the series with T24 cells; 4.77 ± 0.26 µM in the series on 143B cells (setting [5]); less than 5 µM with 143B cells (read-out: IC50 values, osteosarcoma cells 143B). Besides, the IC50 is 6.39 ± 0.68 µM in the series on HeLa cells; 3.71 ± 0.19 µM in the series with UM-UC-3 cells; 4.05 ± 0.34 µM in the series on MG-63 cells (setting [6]); less than 5 µM in the series on MG-63 cells (read-out: IC50 values, osteosarcoma cells MG-63); 10.3 ± 0.93 µM in the series on BxPC-3 cells; 14.9 ± 0.98 µM in the series on PANC-1 cells. For the same compound, the IC50 was determined as 3.93 ± 0.22 µM in the series on J82 cells; 3.96 ± 0.19 µM with 5637 cells; 10.9 ± 0.59 µM in [2]; 6.32 ± 0.49 µM in the series with MCF-7 cells; 5.23 ± 0.52 µM in the series with Hep G2 cells.

In the case of `COc1cc(OC)cc(N(CCNC(C)C)c2ccc3ncc(-c4cnn(C)c4)nc3c2)c1` [Erda, erdafitinib], the Water solubility entry in series [3] is “poor water solubility”.

For `Nc1ccn([C@@H]2O[C@H](CO)[C@@H](O)C2(F)F)c(=O)n1` [Gem, gemcitabine, reference compound], the “Mice manifesting anorexia and emaciation after 4 doses” value in series [4] (24 mg/kg oral gavage) is 50%. In addition, the “Nude mice that died within 16 d” value in [4] (24 mg/kg oral gavage, n=6) is listed as 3 of 6. In series [4] (oral gavage, gemcitabine 24 mg/kg, 8-2h 12, 24, 36 mg/kg), the Toxicity observations entry is recorded as “significant gastrointestinal reactions”.
